Target: T1, hFXR (Homo sapiens, UniProt Q96RI1)
T1 construct: expressed in transfected cells; host or cells: CV-1 cells
T1 sequence (Q96RI1 1-486): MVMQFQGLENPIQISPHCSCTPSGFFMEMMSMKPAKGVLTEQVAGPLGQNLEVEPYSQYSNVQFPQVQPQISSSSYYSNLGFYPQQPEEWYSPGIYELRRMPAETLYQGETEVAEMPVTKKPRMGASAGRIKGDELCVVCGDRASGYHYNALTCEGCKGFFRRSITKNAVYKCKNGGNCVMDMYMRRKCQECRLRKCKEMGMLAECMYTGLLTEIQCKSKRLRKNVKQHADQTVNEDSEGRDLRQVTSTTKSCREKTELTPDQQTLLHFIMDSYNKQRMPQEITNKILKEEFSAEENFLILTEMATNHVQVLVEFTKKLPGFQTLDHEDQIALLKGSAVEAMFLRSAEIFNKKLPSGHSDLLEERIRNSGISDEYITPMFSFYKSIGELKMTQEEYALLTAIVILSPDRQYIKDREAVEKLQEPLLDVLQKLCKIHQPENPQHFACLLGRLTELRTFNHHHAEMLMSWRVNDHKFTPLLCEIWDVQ
T1 sequence (P19793 1-462 partner): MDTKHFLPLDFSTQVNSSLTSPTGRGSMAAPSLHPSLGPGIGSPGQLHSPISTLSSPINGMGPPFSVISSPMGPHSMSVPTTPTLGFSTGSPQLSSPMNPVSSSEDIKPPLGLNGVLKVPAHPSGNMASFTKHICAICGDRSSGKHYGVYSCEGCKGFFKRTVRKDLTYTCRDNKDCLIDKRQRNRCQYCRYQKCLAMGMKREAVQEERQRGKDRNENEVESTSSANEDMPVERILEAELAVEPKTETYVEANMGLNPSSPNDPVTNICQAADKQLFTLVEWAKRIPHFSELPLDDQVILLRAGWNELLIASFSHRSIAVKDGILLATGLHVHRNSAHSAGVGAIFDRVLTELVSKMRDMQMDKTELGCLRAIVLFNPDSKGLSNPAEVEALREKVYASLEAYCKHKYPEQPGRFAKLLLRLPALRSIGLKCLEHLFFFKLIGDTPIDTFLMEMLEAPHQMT
Assay: In Vitro FXR Assay (TK): TK-ECRE-luc reporter in transfected CV-1 cells
Format: cell-based
Conditions: 18 hrs incubation, luminescence
In short: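 Luminescence from a TK-ECRE-luc reporter was read after 18 h of compound exposure in CV-1 cells. These cells were grown in charcoal-stripped FBS medium and transiently transfected with hFXR, hRXR and YFP expression plasmids.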

Row | SMILES | EC50 [nM]
1 | COc1ccc([C@H]2CC[C@H](CN(c3cc(-c4cnn(C(C)C)c4)ccn3)C(=O)[C@H]3CC[C@H](OC(=O)NCC(F)(F)CO)CC3)CC2)cc1C [Compound 2.34, trans-4-((4-(1-Isopropyl-1H-pyrazol-4-yl)pyridin-2-yl)(((trans)-4-(4-methoxy-3-methylphenyl)cyclohexyl)methyl)carbamoyl) cyclohexyl(2,2-difluoro-3-hydroxypropyl)carbamate] | ≤ 50
2 | COc1ncc(C23CCC(CN(c4cc(-c5cnn(C(C)C)c5)ccn4)C(=O)[C@H]4CC[C@H](OC(=O)N5CC(O)C5)CC4)(CC2)CC3)cc1C [Compound 26, 4-((4-(1-Isopropyl-1H-pyrazol-4-yl)pyridin-2-yl)((4-(6-methoxy-5-methylpyridin-3-yl)bicyclo[2.2.2]octan-1-yl)methyl)carbamoyl)cyclohexyl trans-3-hydroxyazetidine-1-carboxylate] | ≤ 50
3 | COc1ccc([C@H]2CC[C@H](CN(c3cc(-c4cnn(C(C)C)c4)ccn3)C(=O)[C@H]3CC[C@H](CO)CC3)CC2)cc1C [Compound 17, (trans)-4-(Hydroxymethyl)-N-(4-(1-isopropyl-1H-pyrazol-4-yl)pyridin-2-yl)-N-(((trans)-4-(4-methoxy-3-methylphenyl)cyclohexyl)methyl)cy-clohexanecarboxamide] | ≤ 50
4 | COc1ccc([C@H]2CC[C@H](CN(c3cccc(-c4cnn(C(C)C)c4)c3)C(=O)[C@H]3CC[C@H](NC(=O)C4CCOCC4)CC3)CC2)cc1C [Compound 10.02, N-(trans-4-((3-(1-Isopropyl-1H-pyrazol-4-yl)phenyl)((trans-4-(4-methoxy-3-methylphenyl)cyclohexyl)methyl)carbamoyl)cyclohexyl)tetrahydro-2H-pyran-4-carboxamide] | ≤ 50
5 | COc1ccc(C23CCC(CN(c4cc(-c5coc(C(C)C)n5)ccn4)C(=O)[C@H]4CC[C@H](OC(=O)N5CC(S(C)(=O)=O)C5)CC4)(CC2)CC3)cc1C [Compound 23.03, 4-((4-(2-Isopropyloxazol-4-yl)pyridin-2-yl)((4-(4-methoxy-3-methylphenyl)bicyclo[2.2.2]octan-1-yl)methyl)carbamoyl)(trans-cyclohexyl) 3-(methylsulfonyl)azetidine-1-carboxylate] | ≤ 50
6 | COc1ccc([C@H]2CC[C@H](CN(c3cccc(-c4cnn(C(C)C)c4)c3)C(=O)[C@H]3CC[C@H](OC(=O)NCC(C)(C)O)CC3)CC2)nc1C [Compound 5.01, trans-4-((3-(1-Isopropyl-1H-pyrazol-4-yl)phenyl)((trans-4-(5-methoxy-6-methylpyridin-2-yl)cyclohexyl)methyl)carbamoyl)cyclohexyl (2-hydroxy-2-methylpropyl) carbamate] | ≤ 50
7 | COc1ccc([C@H]2CC[C@H](CN(c3cc(-c4cnn(C(C)C)c4)ccn3)C(=O)[C@H]3CC[C@H](OC(=O)NCC(C)(C)CO)CC3)CC2)nc1C [Compound 1.02, trans-4-((4-(1-Isopropyl-1H-pyrazol-4-yl)pyridin-2-yl) ((trans-4-(5-methoxy-6-methylpyridin-2-yl)cyclohexyl)methyl)carbamoyl) cyclohexyl (3-hydroxy-2,2-dimethylpropyl)carbamate] | ≤ 50
8 | COc1ccc(C23CCC(CN(c4cc(-c5cnn(C(C)C)c5)ccn4)C(=O)[C@H]4CC[C@H](OC(=O)N5CCN(C)CC5)CC4)(CC2)CC3)cc1C [Compound 4.15, 4-((4-(1-Isopropyl-1H-pyrazol-4-yl)pyridin-2-yl)((4-(4-methoxy-3-methylphenyl)bicyclo [2.2.2]octan-1-yl)methyl)carbamoyl)cyclohexyl 4-methylpiperazine-trans-1-carboxylate] | ≤ 50
9 | COc1ccc(C23CCC(CN(c4cc(-c5cc(C6CC6)on5)ccn4)C(=O)[C@H]4CC[C@H](OC(=O)N5CC(O)C5)CC4)(CC2)CC3)cc1C [Compound 4.26, 4-((4-(5-Cyclopropylisoxazol-3-yl)pyridin-2-yl)((4-(4-methoxy-3-methylphenyl)bicyclo[2.2.2]octan-1-yl)methyl)carbamoyl) cyclohexyl 3-hydroxyazetidine-trans-1-carboxylate] | ≤ 50
10 | CCc1nc(-c2ccnc(N(CC34CCC(c5ccc(OC)c(C)c5)(CC3)CC4)C(=O)[C@H]3CC[C@H](OC(=O)N4CC(O)C4)CC3)c2)co1 [Compound 4.22, 4-((4-(2-Ethyloxazol-4-yl)pyridin-2-yl)((4-(4-methoxy-3-methylphenyl)bicyclo[2.2.2]octan-1-yl)methyl)carbamoyl) cyclohexyl 3-hydroxyazetidine-trans-1-carboxylate] | ≤ 50
11 | COc1ncc([C@H]2CC[C@H](CN(c3cc(-c4coc(C5CC5)n4)ccn3)C(=O)[C@H]3CC[C@H](OC(=O)N4CC(N(C)C)C4)CC3)CC2)cc1Cl [Compound 1.06, trans-4-((((trans)-4-(5-Chloro-6-methoxypyridin-3-yl)cyclohexyl)methyl)(4-(2-cyclopropyloxazol-4-yl)pyridin-2-yl)carbamoyl)cyclohexyl 3-(dimethylamino)azetidine-1-carboxylate] | ≤ 50
12 | COc1ccc([C@H]2CC[C@H](CN(c3cccc(-c4cnn(C(C)C)c4)c3)C(=O)[C@H]3CC[C@H](NC(=O)C4CC(O)C4)CC3)CC2)cc1C (stereo partly drawn) [Compound 14.02, (1r,4r)-4-(3-Hydroxycyclobutanecarboxamido)-N-(3-(1-isopropyl-1H-pyrazol-4-yl)phenyl)-N-((trans-4-(4-methoxy-3-methylphenyl)cyclohexyl)methyl) cyclohexanecarboxamide] | 50 to 1000
13 | COc1ccc(C23CCC(CN(c4cc(-c5cnn(C(C)C)c5)ccn4)C(=O)[C@H]4CC[C@H](OC(=O)N5CC(C)C5)CC4)(CC2)CC3)cc1C [Compound 4.53, 4-((4-(1-Isopropyl-1H-pyrazol-4-yl)pyridin-2-yl) ((4-(4-methoxy-3-methylphenyl)bicyclo [2.2.2]octan-1-yl)methyl)carbamoyl)cyclohexyl trans-3-methylazetidine-1-carboxylate] | ≤ 50
14 | COc1ccc(C23CCC(CN(c4cc(-c5cnn(C(C)C)c5)ccn4)C(=O)[C@H]4CC[C@H](OC(=O)NC(C)C)CC4)(CC2)CC3)cc1C [Compound 4.04, 4-((4-(1-Isopropyl-1H-pyrazol-4-yl)pyridin-2-yl)((4-(4-methoxy-3-methylphenyl)bicyclo [2.2.2]octan-1-yl)methyl)carbamoyl)cyclohexyl trans-isopropylcarbamate] | ≤ 50
15 | COc1ccc(C23CCC(CN(c4cccc(-c5nnc(C6CC6)o5)c4)C(=O)[C@H]4CC[C@H](OC(=O)N5CC(O)C5)CC4)(CC2)CC3)cc1C [Compound 4.32, 4-((3-(5-Cyclopropyl-1,3,4-oxadiazol-2-yl)phenyl)((4-(4-methoxy-3-methylphenyl)bicyclo [2.2.2]octan-1-yl)methyl)carbamoyl)cyclohexyl trans-3-hydroxyazetidine-1-carboxylate] | ≤ 50
16 | COc1ccc(C23CCC(CN(c4cnnc(-c5cnn(C(C)C)c5)c4)C(=O)[C@H]4CC[C@H](OC(=O)N5CC(O)C5)CC4)(CC2)CC3)cc1C [Compound 4.61, 4-((6-(1-Isopropyl-1H-pyrazol-4-yl)pyridazin-4-yl)((4-(4-methoxy-3-methylphenyl)bicyclo [2.2.2]octan-1-yl)methyl)carbamoyl)(trans-cyclohexyl) 3-hydroxyazetidine-1-carboxylate] | 50 to 1000
17 | COc1ccc(C23CCC(CN(c4ccc(F)c(-c5cnn(C(C)C)c5)c4)C(=O)[C@H]4CC[C@H](OC(=O)N5CC(CS(C)(=O)=O)C5)CC4)(CC2)CC3)cc1C [Compound 25.10, 4-((4-Fluoro-3-(1-isopropyl-1H-pyrazol-4-yl)phenyl)((4-(4-methoxy-3-methylphenyl)bicyclo[2.2.2]octan-1-yl)methyl)carbamoyl)cyclohexyl trans-3-((methylsulfonyl)methyl)azetidine-1-carboxylate] | ≤ 50
18 | COCCOC(=O)N[C@H]1CC[C@H](C(=O)N(C[C@H]2CC[C@H](c3ccc(OC)c(C)c3)CC2)c2cccc(-c3cnn(C(C)C)c3)c2)CC1 [Compound 6.04, 2-Methoxyethyl (trans-4-((3-(1-isopropyl-1H-pyrazol-4-yl)phenyl)((trans-4-(4-methoxy-3-methylphenyl)cyclohexyl)meth-yl)carbamoyl)cyclohexyl)carbamate] | ≤ 50
19 | COc1ccc([C@H]2CC[C@H](CN(c3cc(-c4cnn(C(C)C)c4)ccn3)C(=O)[C@H]3CC[C@H](OC(=O)N4CC(CO)C4)CC3)CC2)cc1C [Compound 2.03, trans-4-((4-(1-Isopropyl-1H-pyrazol-4-yl)pyridin-2-yl)(((trans)-4-(4-methoxy-3-methylphenyl)cyclohexyl)methyl)carbamoyl)cyclohexyl 3-(hydroxymethyl) azetidine-1-carboxylate] | ≤ 50
